Reference: PubChem BioAssay AID602321 (The Scripps Research Institute Molecular Screening Center, 2012)
Active and inactive are the calls of the source. The rule behind the calls is not given here.

Key:
Assay in all cases: serine hydrolase off-target inhibition in mouse brain, late-stage follow-up, selectivity assay for DAGLb inhibitor project, biochemical, gel-based competitive ABPP, mouse brain membrane, set 3 (AID 602321)
[1] = system: APEH; settings: gel-based competitive ABPP fluorescence, APEH, stronger effect = higher value
[2] = biological target: Acyl-protein thioesterase 2 (Mus musculus) (UniProt Q9WTL7); settings: gel-based competitive ABPP fluorescence, stronger effect = higher value
[3] = system: FAAH; settings: gel-based competitive ABPP fluorescence, stronger effect = higher value
[4] = system: LYPLA1; settings: gel-based competitive ABPP fluorescence, stronger effect = higher value
[5] = biological target: Monoacylglycerol lipase ABHD6 (Mus musculus) (UniProt Q8R2Y0); settings: gel-based competitive ABPP fluorescence, stronger effect = higher value
[6] = biological target: Acyl-protein thioesterase 1 (Mus musculus) + Monoacylglycerol lipase ABHD6 (Mus musculus) + Acyl-protein thioesterase 2 (Mus musculus) (UniProt P97823+Q8R2Y0+Q9WTL7); settings: gel-based competitive ABPP fluorescence
[7] = system: Acyl-protein thioesterase 1 (Mus musculus) + Monoacylglycerol lipase ABHD6 (Mus musculus) + Acyl-protein thioesterase 2 (Mus musculus); settings: gel-based competitive ABPP fluorescence

Chain of Acyl-protein thioesterase 2 (Mus musculus) (Q9WTL7 whole entry, looked up): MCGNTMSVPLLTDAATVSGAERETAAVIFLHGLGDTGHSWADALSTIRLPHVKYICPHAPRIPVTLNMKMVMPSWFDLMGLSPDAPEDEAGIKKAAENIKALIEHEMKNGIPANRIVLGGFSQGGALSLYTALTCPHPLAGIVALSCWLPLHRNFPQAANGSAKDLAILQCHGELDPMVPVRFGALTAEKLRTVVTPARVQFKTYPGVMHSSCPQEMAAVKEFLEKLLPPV
Chain of Monoacylglycerol lipase ABHD6 (Mus musculus) (Q8R2Y0 whole entry, looked up): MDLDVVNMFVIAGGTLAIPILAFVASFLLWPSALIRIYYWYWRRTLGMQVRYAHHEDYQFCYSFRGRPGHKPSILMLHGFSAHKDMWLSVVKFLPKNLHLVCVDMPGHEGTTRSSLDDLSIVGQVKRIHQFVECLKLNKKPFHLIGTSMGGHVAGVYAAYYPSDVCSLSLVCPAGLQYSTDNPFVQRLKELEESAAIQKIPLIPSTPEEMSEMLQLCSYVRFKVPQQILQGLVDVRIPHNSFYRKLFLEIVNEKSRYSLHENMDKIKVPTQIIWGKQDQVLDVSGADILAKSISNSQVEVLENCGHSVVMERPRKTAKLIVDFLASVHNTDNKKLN
Chain of Acyl-protein thioesterase 1 (Mus musculus) + Monoacylglycerol lipase ABHD6 (Mus musculus) + Acyl-protein thioesterase 2 (Mus musculus) (UniProt P97823+Q8R2Y0+Q9WTL7) (P97823 whole entry, looked up): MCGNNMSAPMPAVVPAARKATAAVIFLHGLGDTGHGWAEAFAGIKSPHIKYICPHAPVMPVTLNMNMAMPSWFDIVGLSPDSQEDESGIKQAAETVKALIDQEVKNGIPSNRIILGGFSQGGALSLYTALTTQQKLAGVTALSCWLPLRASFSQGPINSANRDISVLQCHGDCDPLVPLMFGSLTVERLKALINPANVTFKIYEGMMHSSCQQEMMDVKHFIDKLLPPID
Chain of Acyl-protein thioesterase 1 (Mus musculus) + Monoacylglycerol lipase ABHD6 (Mus musculus) + Acyl-protein thioesterase 2 (Mus musculus) (UniProt P97823+Q8R2Y0+Q9WTL7) (Q8R2Y0 whole entry, looked up): as the sequence (Q8R2Y0 whole entry, looked up) above
Chain of Acyl-protein thioesterase 1 (Mus musculus) + Monoacylglycerol lipase ABHD6 (Mus musculus) + Acyl-protein thioesterase 2 (Mus musculus) (UniProt P97823+Q8R2Y0+Q9WTL7) (Q9WTL7 whole entry, looked up): as the sequence (Q9WTL7 whole entry, looked up) above

| SMILES | inhibition ([1]; at 10 µM) | inhibition ([1]; inhibition, at 1 µM) | inhibition ([2]; LYPLA2, at 10 µM) | inhibition ([2]; LYPLA2, inhibition, at 1 µM) | inhibition ([3]; at 10 µM) | inhibition ([3]; inhibition, at 1 µM) | inhibition ([4]; at 10 µM) | inhibition ([4]; inhibition, at 1 µM) | inhibition ([5]; at 10 µM) | inhibition ([5]; inhibition, at 1 µM) | outcome [6] | outcome [7] |
| --- | --- | --- | --- | --- | --- | --- | --- | --- | --- | --- | --- | --- |
| O=C(N1CCCCC1Cc1ccccc1)n1cc(-c2ccc(-c3cccc(CO)c3)cc2)nn1 (stereo unspecified) | 0% (inactive) | 0% | 0% (inactive) | 0% | 25% (inactive) | 0% | 0% (inactive) | 0% | 98% | 98% |  |  |
| O=C(c1ccc(-c2ccc(-c3cn(C(=O)N4CCCCC4Cc4ccccc4)nn3)cc2)cc1)N1CCCCC1 (stereo unspecified) | 0% (inactive) | 0% | 0% (inactive) | 0% | 0% (inactive) | 0% | 0% (inactive) | 0% | 98% | 98% |  |  |
| O=C(N1CCCCC1c1ccccc1)n1cc(-c2ccc(-c3ccccc3CO)cc2)nn1 (stereo unspecified) | 45% (inactive) | 0% | 100% | 20% | 98% | 15% | 100% | 20% | 98% | 98% |  |  |
| O=C(O)c1ccc(-c2ccc(-c3cn(C(=O)N4CCCCC4CCc4ccccc4)nn3)cc2)cc1 (stereo unspecified) | 0% (inactive) | 0% | 15% (inactive) | 0% | 35% (inactive) | 0% | 15% (inactive) | 0% | 98% | 90% |  |  |
| O=C(c1ccc(-c2ccc(-c3cn(C(=O)N4CCCCC4c4ccccc4)nn3)cc2)cc1)N1CCCCC1 (stereo unspecified) | 25% (inactive) | 0% | 90% | 15% | 25% (inactive) | 10% | 90% | 15% | 98% | 98% |  |  |
| O=C(N1CCCCC1c1ccccc1)n1cc(-c2ccc(-c3ccc(CO)cc3)cc2)nn1 (stereo unspecified) | 25% (inactive) | 0% | 90% | 10% | 90% | 0% | 90% | 10% | 98% | 98% |  |  |

Second part, the molecule after the results:

| inhibition ([1]; at 10 µM) | inhibition ([1]; inhibition, at 1 µM) | inhibition ([2]; LYPLA2, at 10 µM) | inhibition ([2]; LYPLA2, inhibition, at 1 µM) | inhibition ([3]; at 10 µM) | inhibition ([3]; inhibition, at 1 µM) | inhibition ([4]; at 10 µM) | inhibition ([4]; inhibition, at 1 µM) | inhibition ([5]; at 10 µM) | inhibition ([5]; inhibition, at 1 µM) | outcome [6] | outcome [7] | SMILES |
| --- | --- | --- | --- | --- | --- | --- | --- | --- | --- | --- | --- | --- |
|  |  |  |  |  |  | 15% (inactive) | 0% |  |  | active | inactive | O=C(O)c1cccc(-c2ccc(-c3cn(C(=O)N4CCCCC4Cc4ccccc4)nn3)cc2)c1 (stereo unspecified) |
| 25% (inactive) | 0% | 90% | 10% | 95% | 10% | 90% | 10% | 98% | 98% |  |  | NC(=O)c1ccc(-c2ccc(-c3cn(C(=O)N4CCCCC4c4ccccc4)nn3)cc2)cc1 (stereo unspecified) |
|  |  |  |  |  |  | 98% | 20% |  |  |  | inactive | O=C(c1cccc(-c2ccc(-c3cn(C(=O)N4CCCCC4c4ccccc4)nn3)cc2)c1)N1CCCCC1 (stereo unspecified) |
| 98% | 80% | 100% | 85% | 90% | 5% | 100% | 85% | 98% | 98% |  |  | O=C(O)c1cccc(-c2ccc(-c3cn(C(=O)N4CCCCC4c4ccccc4)nn3)cc2)c1 (stereo unspecified) |
|  |  |  |  |  |  | 95% | 15% |  |  | active | inactive | O=C(N1CCCCC1c1ccccc1)n1cc(-c2ccc(-c3cccc(CO)c3)cc2)nn1 (stereo unspecified) |
| 0% (inactive) | 0% | 25% (inactive) | 0% | 95% | 15% | 25% (inactive) | 0% | 98% | 98% |  |  | O=C(O)c1cccc(-c2ccc(-c3cn(C(=O)N4CCCCC4CCc4ccccc4)nn3)cc2)c1 (stereo unspecified) |
